Reference: a melting point compilation (Tetko et al.; mined from patent text by program, amines drawn as free bases though some values may be those of a salt)

Compound | melting point [°C]
O=C(O)c1cc(Br)c(O)c(Br)n1 | 195 to 197
CC(C)(S)CN1CCC(CCO)CC1 | 42
CN(C)C=NS(=O)(=O)c1cc(CCNC(=O)C(F)(F)F)ccc1OCC1CCCO1 (configuration not stated) | 138 to 140
COc1ccc2c(c1)sc1ncc(C=O)n12 | 168 to 169
COc1ccc(S(=O)(=O)C2(CCCC#Cc3cccc(N)c3)SC(=O)NC2=O)cc1 (configuration not stated) | 135 to 138
CN1COc2cc(CCCN3CCOCC3)cnc21 | < 80
Nc1c(F)cc(Cn2ccnc2S)cc1F | 181 to 184
COc1cccc2c1C(=O)NS2(=O)=O | 224
Cc1c(S(=O)(=O)Nc2ccc(-c3nc(CCl)cs3)cc2S(C)(=O)=O)sc2ccc(F)cc12 | 190 to 191
CC(C)COC(=O)N[C@@H](CC(C)C)C(=O)N[C@@H](C(C)C)[C@@H](O)c1c(-c2ccccc2)c1=O | 145 to 146
CCCN(CCC)Cc1csc(-c2ncn3c2CN(C)C(=O)c2c(Cl)cccc2-3)n1 | 121 to 123
O=C1NC(=O)c2c1cc1ccc3c(c1c2C1CCCCC1)OCO3 | 305 to 308
N#Cc1cc(C=O)ccc1-n1cncn1 | 134 to 141
CS(=O)(=O)c1c(C#N)nn(-c2c(Cl)cc(C(F)(F)F)cc2Br)c1N | 235 to 238
O=C1CCCC(O)=C1NC(=O)C1CC1 | 82
NC(=O)c1ncn2c1CN=C(c1ccccc1Cl)c1cc(Cl)ccc1-2 | > 300
CC(C)Nc1nc2cc(F)c(Cl)cc2n1[C@@H]1O[C@H](C)[C@@H](O)[C@H]1O | 97 to 99
COc1cc2c(cc1F)C(c1ccccc1Cl)=NC1=CNNC1=N2 | 242 to 243
O=C1Nc2ccccc2N2CCN(CCc3ccncc3)CC12 (configuration not stated) | 184 to 186
CC(C)C(=O)O[C@H]1[C@H](C)OC(=O)[C@@H](NC(=O)OC(C)(C)C)COC(=O)[C@@H]1CC(=O)O | 164 to 167
CCCCOCC(O)COc1ccc(-c2nc(OC)nc(-c3ccc(OCC(O)COCCCC)cc3O)n2)c(O)c1 (configuration not stated) | 98 to 99
COc1ccccc1N1CCC(CNC(=O)Nc2c(C(C)C)cc(N)cc2C(C)C)(c2cccc(OCCCO)c2)CC1 | 203 to 205
COc1cc(-c2nc(NCC(C)C)c3c(C)c(C#N)sc3n2)cc(OC)c1OC | 182 to 184

Compound | melting point [°C]
CN(C)c1ccc2c(c1)CNC2=O | 122 to 124
Brc1n[nH]c2ccccc12 | 136
CCOC(=O)c1cc(-n2c(=O)[nH]c3c(c2=O)CSC3)ccc1Cl | 194 to 196
CN(C)c1cccc2c1C(=O)NS2(=O)=O | 228 to 229
COc1c(Cl)ccc(-c2nc(C(=O)OC(C)C)cc(N)c2F)c1F | 177 to 179
CN1C(=O)C(C)(C)C(=O)Nc2cc(C=O)ccc21 | 208 to 210
CC(C)c1cccc(C(C)C)c1-n1nnn(C(C)C)c1=O | 60 to 62
CCOC(=O)c1sc(N)nc1-c1ccc(Cl)cc1 | 198 to 200
CCCCCCC(C)(C)c1cc(OC)c(C2=C[C@@H]3CC[C@@]2(C(=O)O)C3(C)C)c(OC)c1 | 101 to 102
COc1cc(-c2ccc(N(C)CCN(C)c3ccc(-c4cc(OC)c(N5CCCC5)c(OC)c4)nc3)cn2)cc(OC)c1N1CCCC1 | 221 to 225
O=C(/C=C/c1ccc(Br)cc1)c1c(F)cccc1F | 71
CC(C)(C)OC(=O)N1CCn2c(c(C(N)=O)c(C#N)c2C2CCN(S(C)(=O)=O)CC2)C1 | 220
COc1ccc(C(O)C=Cc2ccc(N(C)C)cc2)cc1 (configuration not stated) | 137 to 148
COC(=O)c1ccccc1S(=O)(=O)NC(=O)Nc1n[nH]c(SC)n1 | 147 to 153
COC(=O)c1cccc(-c2c(C)cc(OC3CCS(=O)(=O)CC3)cc2C)c1 | 180
COC(=O)c1cc(C)nc(Nc2ccc(C(C)C)cc2Br)n1 | 75 to 76
CCCCc1oc2ccccc2c1C(=O)NCc1ccc2c(-c3ccc(C(C)(C)C)cc3)c(OCc3nnn[nH]3)ccc2c1 | 75 to 78
CC1(C)C(=O)N(c2ccc(C#N)c(C(F)(F)F)c2)C(=S)N1CCCCO | 78 to 79
C=COCCN1C(=O)N(CN2C(=O)N(CCOC=C)C(=O)C2(C)C)C(C)(C)C1=O | 90 to 92
CC(C)(O)c1ccc(Cl)nc1 | 67 to 71
N#Cc1nc2ccccc2[nH]1 | 268
CS(=O)(=O)Oc1cccc2c1C(=O)OC2=O | 134 to 140
CNC(=O)C(Cc1ccc(OC)cc1)NC(=O)C(CC(C)C)C(S)CC(=O)OC (configuration not stated) | 80 to 86

The remaining lines, values ahead:

melting point [°C] | Compound
174 to 175 | CC1(C)Oc2ccc(C(F)(F)F)cc2[C@@H](NC(=O)Nc2ccccc2)[C@@H]1O (relative stereo)
220 to 222 | Nc1ncc(Cc2csc3ccccc23)c(N)n1
166 to 167 | N#Cc1ccc(COC2COc3nc([N+](=O)[O-])cn3C2)cc1 (configuration not stated)
191 to 192 | CN1CCN(C(=O)c2ccc(-c3cnc4c(c3)N(Cc3cc(F)ccc3F)CC(C)(C)N4)cc2)CC1
58 to 59 | CCCC[C@@H]1CCc2ccc(OCc3ccc4ccccc4n3)cc2[C@H]1O
222 to 224 | CC(=O)N1CCN=C1c1ccc(NC(=O)C2=Cc3ccccc3OCC2)cc1
158 to 160 | CCN(CC)C(=O)CC1CCN(Cc2cnc3c(C)c(NC(=O)c4ccc(-c5ccc(F)cc5)cc4)ccc3c2)CC1
115 to 116 | FC(F)(F)c1cccc(CO[C@H]2CO[C@@H](c3ccccc3)OC2)c1
256 to 259 | CCOC(=O)c1cc2c(=O)n(-c3ccccc3)c3ccccc3n2c1
264 to 265 | Clc1ccc(-c2[nH]nc(N3CCN(C4CC4)CC3)c2-c2ccncc2)cc1
56 to 59 | O=C1CCCCC1c1ccc(F)cc1 (configuration not stated)
220 to 222 | COc1ccccc1-c1coc2c(O)c(O)ccc2c1=O
87 | CCOC(=O)C(=CNc1ccc(F)c(F)c1OCc1ccccc1)C(=O)OCC
143 to 144 | COc1cccc(-c2cn3cc(-c4cccc(CO)c4F)ccc3n2)c1
115 to 116 | O=C(NCC1CNc2ccccc2C1)OCc1ccccc1 (configuration not stated)
178 to 179 | O=C(Nc1ccc(O)cc1)c1c[nH]c2c1C(=O)CCCC2
268 to 270 | Cc1cc(C)n(-c2nc(Nc3ccc(-c4ccccc4)cc3)c3ccccc3n2)n1
124 to 125 | COC(=O)C(C(=O)OC)c1c(C(=O)OCc2ccc(OC)cc2)cc([N+](=O)[O-])c2ccccc12
154 to 155 | N#Cc1ccc(N(Cc2ccc(OS(N)(=O)=O)c(Cl)c2)n2cnnc2)cc1-c1ccoc1
69 to 70 | O=C(CCCC1CCCCC1)N1C(=O)OC[C@@H]1Cc1ccccc1
81 to 82 | Cc1cc2c(cc1N1CC=CC1)OC(=O)C2C (configuration not stated)
151 to 152 | O=C1NC(=O)C(CCCCc2ccc(O)cc2)O1 (configuration not stated)
121 to 122 | CCOc1ccc(-c2ccc(C3COC(c4c(Cl)cncc4Cl)=N3)cc2)cc1 (configuration not stated)
210 | CC(C)(C)OC(=O)Nc1cc(N2CCOC2=O)c(-c2ccc(F)cc2)cc1N
57 to 60 | COc1cccc2c1OC(CN1CCC(CNC(=O)c3cccnc3N)CC1)CO2 (configuration not stated)
117 | CC(C)(C)NC(=O)C1CCC(c2ccccc2)N1C(=O)CNC(=O)OC(C)(C)C (configuration not stated)

melting point [°C] | Compound
268 to 270 | O=C(O)c1ccc(-c2cnc(-c3ccc(Cl)cc3)o2)cc1
101 to 103 | CN(C)c1cccc(OCC(=O)c2cccc(Cl)c2)c1
228 to 232 | O=C(Nc1ccc(N2CCOCC2)cc1)Nc1ccc(C(F)(F)F)cc1
70.4 to 70.5 | CCCCCS(=O)(=O)NC(=O)CCc1ccc(OCCOC)cc1Oc1ccccc1
64 to 66 | Cc1nc(N2C(=O)N(Cc3ccc(F)cc3)CC2O)sc1C(=O)NCc1cccnc1 (configuration not stated)
117 to 119 | CCC1(CCCN2CCN(c3cccc(Cl)c3)CC2)C(=O)Nc2ccc(Cl)cc21 (configuration not stated)
136 to 137 | CC1(C)C(=O)Oc2ccc3ccc(Cn4cncn4)cc3c21
219 to 220 | CNC(=O)c1c(NC(=O)c2cc(C(F)(F)F)nn2-c2ncccc2Cl)ccc2cccnc12
128 | COc1ccc2ccc(N3C(=O)c4ccccc4C3NCCCN(C)C)nc2n1 (configuration not stated)
215 to 216 | O=C(NO)c1ccc(CNC(=O)c2[nH]c(-c3ccccc3)cc2-c2ccc(F)cc2)cc1
231 | CCOc1ccc2c(c1)n(C13CC4CC(CC(C4)C1)C3)c(=O)n2S(=O)(=O)c1ccc([N+](=O)[O-])cc1OC
80 to 82 | O=C(O)C(Cc1ccccc1)Oc1ccc(-c2ccc(-c3c(Cc4ccccc4)oc4ccccc34)cc2)cc1Br (configuration not stated)
307 to 310 | Cc1cccc(C)c1N1CC(C)N(c2c(C)cccc2C)C1=NCC(=O)O (configuration not stated)
102 to 104 | OCC(CO)(c1ccccc1)c1ccccc1
120 to 123 | O=C(CCCN1CCNC1=O)N1CCC(C2c3ncc(Br)cc3CCc3cc(Cl)cc(Br)c32)CC1 (single isomer, unassigned; (+))
148 to 150 | O=C(NC1CCCC1)c1ccccc1C(c1ccc(O)cc1)c1ccc(O)cc1
172 to 175 | Nc1ccc2c(c1)ncn2-c1cccc(-c2cccnc2)c1
124 | CC(C)(Oc1ccc(Cl)cc1)C(=O)OCc1ncc(C(=O)O)s1
218 to 220 | O=C(Nc1nccs1)c1nc(-c2cccc3ccccc23)[nH]c1-c1ccc(F)cc1
150 to 152 | O=C(O)[C@H](Cc1ccccc1)NS(=O)(=O)c1ccccc1
110 to 113 | COc1cc(Cl)c(CCNCC(O)c2ccccc2)cc1OC (configuration not stated)
230 to 232 | Nc1nc2c(s1)CC(N1CCN(c3ccccn3)CC1)CC2 (single isomer, unassigned; (-))
287 | C(=Cc1ccc(-c2nc(-c3ccccc3)no2)cc1)c1ccc(-c2nc3ccccn3n2)cc1
125 to 128 | O=C1CN(Cc2ccccc2)CC2c3ccccc3CCCN12 (configuration not stated)
94 to 95 | COc1ccccc1N1CCN(CCCCN2CCN(c3ccccc3)C2=O)CC1
